*1 amine or outer side, *2 acyl side, *3 side chain or, on linkers, in order; H or OH if unused. Where no end group is shown, it is not given here. [ ]: non-standard residue; d: D form. γGlu = O=C(O)[C@H](CCC(=O)[*:2])N[*:1]
Experiment: Quantitative sensory evaluation, body taste and bitterness in drinkable yogurt containing high intensity sweetener (Example 5)
Parameters: species or system human
Details: for Bitterness: control 0, <0 improved; for Bitterness / Body taste: n=12; for Body taste: control 0, >0 improved; for improvement of the body taste (conclusion in words): drinkable yogurt with APM, Table 20
Method: The quantitative sensory evaluation test was performed as follows. As for a drinkable yogurt standard solution, the following compounds were used. The following standard solutions have been adjusted so they each have almost the same degree of sweetness.
To a drinkable yogurt containing each of the sweeteners, γ-Glu-Val-Gly or cinacalcet was added and mixed at concentrations 0.0001 to 1 g/dl, and then each degree of the improvement of the body taste and the improvement of the bitterness on the sweet taste was measured.
When a mixture is more acidic than the standard control solution, the pH of the sample was adjusted with NaOH to achieve a range of pH±0.2 with respect to the pH of the standard solution before use.
(§1) The sensory evaluation for the improvement of the body taste was performed with n=12 on the basis of the following criteria: a control (obtained with adding distilled water only and without adding the sample) was defined as 0, and by using the control as a standard, the following were defined: weak: −2 points; slightly weak: −1 point; slightly strong: 1 point, and strong: 2 points. A higher score than 0 means that the sample has a body taste-improving effect.
as §1, with “On the other hand, the” for “The”, “bitterness” for “body taste”, “lower” for “higher”, “improves the bitterness.” for “has a body taste-improving effect.”

[1] = drinkable yogurt with APM 0.025 g/dl, sample 0.0001 g/dl
[2] = drinkable yogurt with APM 0.025 g/dl, sample 0.001 g/dl

Compound | Bitterness [1] [points] | Body taste [1] [points] | Bitterness [2] [points] | Body taste [2] [points] | improvement of the body taste (conclusion in words) | Taste profile [2]
C[C@@H](NCCCc1cccc(C(F)(F)F)c1)c1cccc2ccccc12 [Cinacalcet, (R)—N-(3-(3-(trifluoromethyl)phenyl)propyl)-1-(1-naphthyl)ethylamine, reference compound] | −0.2 | 0.5 | −0.1 | 1.6 | improves the body taste at almost the same concentration | –
[γGlu]-Val-Gly | −0.2 | 0.5 | −0.5 | 1.4 | improves the body taste at almost the same concentration | Growth is present in middle taste. Sweet taste

Source: patent publication US9420813B2, “Sweetener” (AJINOMOTO CO., INC., priority 2007, dated 2016)
